Assay [1] addresses T1, NAMPT (Homo sapiens (Human), UniProt P43490). The assay can be described thus: Tm shift assay (thermal melting, SYPRO Orange). The format is binding. The following applies: read-out: NAMPT Tm shift.
For a further assay, the system named is THP-1 cells. The assay can be described thus: THP-1 WST-1 assay. Type of assay: cell-based. The following applies: Homo sapiens, 1 μM test compound, 48 hrs, average of three replicates. As to the method:
THP-1 cells were plated at […] (400,000 cells per mL) in a final volume of 150 μL media (RPMI-1640 containing 10% v/v FBS) containing 1 μM test compound. Samples were incubated for 48 hrs at which point 15 μL WST-1 solution (Sigma-Aldrich) was added. Light was excluded and the samples incubated for a further 2 hrs. Absorbance of wells were read at 450 nm and 630 nm using a Hidex Sense plate reader. Metabolic inhibition was determined by the absorbance at 450 nm and transformed to % control using Excel. Data reported is an average of three replicates.

The target of assay [2] is T1, NAMPT. The assay can be described thus: Native mass spectrometry of NAMPT incubated with compound. Particulars: NAMPT 5 μmol/l with compound 5 μmol/l, 12 hours; m/z 6125-6500 region. The format is binding.
Setting [3] is: compound 100 μM, shift vs protein without ligand, mean of 3 independent repeats.

Read-outs that look alike come from different tables or passages of the source. Some results are limits rather than exact numbers.

T1 sequence (P43490 whole entry, species assumed): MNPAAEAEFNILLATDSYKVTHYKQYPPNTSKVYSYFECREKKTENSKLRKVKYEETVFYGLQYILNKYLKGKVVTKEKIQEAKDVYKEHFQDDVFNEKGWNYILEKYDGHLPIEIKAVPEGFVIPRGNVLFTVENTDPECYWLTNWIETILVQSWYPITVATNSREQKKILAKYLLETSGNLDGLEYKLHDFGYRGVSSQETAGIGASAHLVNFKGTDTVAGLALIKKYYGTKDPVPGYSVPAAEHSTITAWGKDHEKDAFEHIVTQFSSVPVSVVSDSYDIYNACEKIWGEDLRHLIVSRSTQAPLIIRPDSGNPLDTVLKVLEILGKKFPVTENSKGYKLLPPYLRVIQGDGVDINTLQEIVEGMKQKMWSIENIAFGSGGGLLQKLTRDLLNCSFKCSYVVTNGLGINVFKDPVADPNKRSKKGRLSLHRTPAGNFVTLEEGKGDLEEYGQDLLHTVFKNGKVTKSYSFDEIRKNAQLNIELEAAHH

Consider `O=C(NCc1ccc(F)c(-c2ccc3cc(S(=O)(=O)O)cc(S(=O)(=O)O)c3c2)c1)Nc1ccc(S(=O)(=O)c2ccccc2)cc1` [Example 3, 6-(2-fluoro-5-((3-(4-(phenylsulfonyl)phenyl)ureido)methyl)phenyl)-4-(trioxidaneylthio) naphthalene-2-sulfonic acid], for which the ΔTm at 100 µM at NAMPT [1] (setting [3]) is 12.2 °C. The molecule also returned an inhibition at 1 µM in the assay with THP-1 cells of less than 0%.

In the case of `O=C(/C=C/c1ccc(F)c(-c2ccc3cc(S(=O)(=O)O)cc(S(=O)(=O)O)c3c2)c1)NCCCCC1CCN(C(=O)c2ccccc2)CC1` [Example 2, (E)-6-(5-(3-((4-(1-benzoylpiperidin-4-yl)butyl)amino)-3-oxoprop-1-en-1-yl)-2-fluorophenyl)-4-(trioxidaneylthio)naphthalene-2-sulfonic acid], on NAMPT [1] (setting [3]), the ΔTm at 100 µM was 9.1 °C. In the assay on THP-1 cells, this molecule had an inhibition at 1 µM of 70.4%.

As for `COc1ccc(CNC(=O)Nc2ccc(S(=O)(=O)N3CCCCC3)cc2)cc1-c1ccc2cc(S(=O)(=O)O)cc(S(=O)(=O)O)c2c1` [Example 7], the ΔTm at 100 µM at NAMPT [1] (setting [3]) is 7.5 °C. The molecule further displayed an inhibition at 1 µM with THP-1 cells of less than 0%.

`O=S(=O)(O)c1cc(S(=O)(=O)O)c2cc(-c3cccc(-c4cn(CCCCCCOc5ccccc5-c5ccccc5)nn4)c3)ccc2c1` [Example 4] gave an inhibition at 1 µM with THP-1 cells of less than 0%.

In the case of `O=C(NCc1ccc(F)c(-c2ccc3cc(S(=O)(=O)O)cc(S(=O)(=O)O)c3c2)c1)Nc1ccc(S(=O)(=O)N2CC3CCC(C2)O3)cc1` [Example 8, 6-(5-((3-(4-((8-oxa-3-azabicyclo[3.2.1]octan-3-yl)sulfonyl)phenyl)ureido)methyl)-2-fluorophenyl)-4-(trioxidaneylthio)naphthalene-2-sulfonic acid], at NAMPT [1] (setting [3]), the ΔTm at 100 µM stood at 9.7 °C. The same molecule showed an inhibition at 1 µM in the assay on THP-1 cells of less than 0%.

In the case of `O=C(NCc1ccc(S(=O)(=O)N2CCCCC2)cc1)c1cc2cc(-c3ccc4cc(S(=O)(=O)O)cc(S(=O)(=O)O)c4c3)ccc2[nH]1` [Example 9], the ΔTm at 100 µM on NAMPT [1] (setting [3]) was found to be 4.2 °C. The inhibition at 1 µM with THP-1 cells was less than 0%.

For the molecule `O=C(NCc1cccc(-c2ccc3cc(S(=O)(=O)O)cc(S(=O)(=O)O)c3c2)c1)Nc1ccc(S(=O)(=O)N2CCCCC2)cc1` [Example 5], the ΔTm at 100 µM on NAMPT [1] (setting [3]) came to 10.8 °C. The same molecule displayed an inhibition at 1 µM in the assay with THP-1 cells of less than 0%.

In the case of `O=C(/C=C/c1cccnc1)NCCCCC1CCN(C(=O)c2ccccc2)CC1` [FK866, (E)-N-[4-(1-benzoylpiperidin-4-yl)butyl]-3-pyridin-3-ylprop-2-enamide, reference compound], at NAMPT [1], the ΔTm at 100 µM came to 2.6 °C. The “complex between NAMPT and compound in native mass spectrum” value at NAMPT [2] is reported as “complex dissociates”. The molecule also had an inhibition at 1 µM with THP-1 cells of 79.6%.

Regarding `O=C(NCc1cc(-c2ccc3cc(S(=O)(=O)O)cc(S(=O)(=O)O)c3c2)ccc1F)Nc1ccc(S(=O)(=O)N2CCCCC2)cc1` [Example 6, 6-(4-fluoro-3-((3-(4-(piperidin-1-ylsulfonyl)phenyl)ureido)methyl)phenyl)-4-(trioxidaneylthio) naphthalene-2-sulfonic acid], the ΔTm at 100 µM at NAMPT [1] (setting [3]) is 9.6 °C. This molecule showed an inhibition at 1 µM with THP-1 cells of 1%.

For `O=C(NC[C@@H]1CCOC1)c1ccc(NC(=O)N2Cc3ccc(-c4ccc5cc(S(=O)(=O)O)cc(SOOO)c5c4)cc3C2)cc1` [Example 10, (S)-6-(2-((4-(((Tetrahydrofuran-3-yl)methyl)carbamoyl)phenyl)carbamoyl)isoindolin-5-yl)-4-(trioxidaneylthio)naphthalene-2-sulfonic acid], the ΔTm at 100 µM on NAMPT [1] (setting [3]) was 20.5 °C.

For `O=C(NCc1ccc(F)c(-c2ccc3cc(S(=O)(=O)O)cc(S(=O)(=O)O)c3c2)c1)Nc1ccc(S(=O)(=O)N2CCCCC2)cc1` [Example 1, 6-(2-fluoro-5-((3-(4-(piperidin-1-ylsulfonyl)phenyl)ureido)methyl)phenyl)-4-(trioxidaneylthio)naphthalene-2-sulfonic acid], the ΔTm at 100 µM on NAMPT [1] (setting [3]) came to 10.3 °C. In the assay on THP-1 cells, this molecule had an inhibition at 1 µM of less than 0%.

For orientation: inhibition means the percentage by which the read-out fell short of the control. A high value points to strong suppression.
